Results as given in BigSolDB 2.1.

COc1cccc(CCc2ccccc2OCC(CN(C)C)OC(=O)CCC(=O)O)c1.Cl (stereo not given)
solubility (mole fraction)
Settings	in THF	in acetone	in acetonitrile	in ethanol	in isopropanol	in methanol	in n-butanol	in n-propanol
288.15 K	2.24e-05	4.85e-05	9.78e-05	0.00168	4.48e-05	0.00376	0.00011	0.000171
293.15 K	3.25e-05	7.84e-05	0.000141	0.00211	8.24e-05	0.00493	0.000146	0.000262
298.15 K	4.28e-05	0.000106	0.000171	0.00278	0.00011	0.00653	0.00019	0.000354
303.15 K	7.01e-05	0.000193	0.000239	0.00345	0.000144	0.00856	0.000294	0.000504
308.15 K	9.92e-05	0.000275	0.000313	0.00476	0.000186	0.0116	0.000412	0.000698
